Assays:
[1] = system: secreted protease(s) present in the conditioned media from AG1523 cells; experiment: In vitro cleavage of recombinant latent PDGF-CC by AG1523 conditioned medium, protease inhibitor profile; format: biochemical, human; settings: inhibitor preincubated 30 min with AG1523 medium, then recombinant PDGF-CC 37° C. overnight; AEBSF 1 mM, leupeptin 100 μM, aprotinin 100 μM; immunoblot
Experimental: In an in vitro assay, the properties of the enzyme(s) involved in cleavage and activation of PDGF-CC were studied by mixing serum-free conditioned media from AG1523 cells with His6-tagged recombinant full-length PDGF-CC.
The class of enzyme(s) responsible for cleavage and activation of latent PDGF-CC was established by generating an enzyme inhibitor profile of the enzymatic activity (FIG. 1E). Eight different protease inhibitors (see FIG. 1F) were separately preincubated with conditioned media from AG1523 cells, and then incubated with His6-tagged recombinant full-length PDGF-CC.
(§1) All protease inhibitors were purchased from Sigma and the concentrations used were as follows: AEBSF 1 mM, bestatin 100 μM, leupeptin 100 μM, pepstatin A 10 μM, E64 100 μM, aprotinin 100 μM (˜3 TIU), EDTA 50 mM, and phosphoramidon 100 μM. The protease inhibitors were preincubated with conditioned AG1523 medium at room temperature for 30 min, and then incubated with recombinant PDGF-CC (ratio 10:2) at 37° C. overnight. Recombinant PDGF-CC species were analyzed by immunoblotting as above. To determine whether tPA is the major proteolytic enzyme responsible for the PDGF-CC processing in AG1523 conditioned medium, AG1523 cells were cultured in serum-free medium, with or without the addition of a synthetic tPA inhibitor tPA-STOP™ (3.5-35 μM, #544, American Diagnostica Inc.) or 100 μM aprotinin as a positive control. The conditioned serum-free medium was collected, and proteins were precipitated before SDS-PAGE and immunoblotting using antibodies against PDGF-C (see above).

tPA [2] = experiment: Processing of endogenous PDGF-CC by growing AG1523 cells with tPA inhibitors in serum-free medium; format: cell-based, human; settings: tPA-STOP 3.5-35 μM, aprotinin 100 μM in serum-free medium of AG1523 cells; immunoblot
Experimental: as §1

tPA [3] = experiment: Ni-NTA pull-down of purified tPA by His6-tagged recombinant proteins; format: binding, human; settings: Ni-NTA beads coated with His6-tagged protein, 1 μg purified tPA, 2 hours room temperature, eluted with imidazole
Experimental: The possibility of a direct protein-protein interaction between tPA and latent PDGF-CC was explored by developing a pull-down assay. Ni-NTA beads were allowed to bind recombinant His6-tagged latent PDGF-CC or PDGF-DD, and purified tPA was added and incubated. Following extensive washings, bound proteins were subsequently eluted with an imidazole-containing buffer, and the eluates were analyzed by immunoblotting using specific antibodies.
To determine a direct protein-protein interaction between tPA and PDGF-CC, His6-tagged recombinant protein species were bound to Ni-NTA-agarose (Qiagen) and then incubated with 1 μg of purified tPA for 2 hours at room temperature. Uncoated and PDGF-DD coated Ni-NTA beads were used as controls. The beads were washed thoroughly, and His6-tagged proteins were specifically eluted with 400 mM imidazole. Eluted proteins were analyzed by SDS-PAGE under reducing conditions and immunoblotted with antibodies against human tPA (see above). The membranes were subsequently stripped and reprobed with specific antibodies.
Target sequence in this assay (P00750 36-562): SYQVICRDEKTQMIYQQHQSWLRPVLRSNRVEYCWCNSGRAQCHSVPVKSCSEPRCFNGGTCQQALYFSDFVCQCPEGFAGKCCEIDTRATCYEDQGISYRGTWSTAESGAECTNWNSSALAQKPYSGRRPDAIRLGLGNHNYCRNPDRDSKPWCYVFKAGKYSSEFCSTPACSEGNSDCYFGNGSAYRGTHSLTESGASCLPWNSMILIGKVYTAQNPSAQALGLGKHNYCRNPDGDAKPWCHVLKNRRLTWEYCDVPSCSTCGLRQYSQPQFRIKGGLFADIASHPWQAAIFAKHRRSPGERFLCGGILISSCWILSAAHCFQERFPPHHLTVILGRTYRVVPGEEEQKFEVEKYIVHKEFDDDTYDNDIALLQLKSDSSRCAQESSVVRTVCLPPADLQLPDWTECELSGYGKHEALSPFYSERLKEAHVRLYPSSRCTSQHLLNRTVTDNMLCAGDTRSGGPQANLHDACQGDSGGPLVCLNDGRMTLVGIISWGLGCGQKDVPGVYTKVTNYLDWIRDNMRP

Row | binding of tPA in pull-down (tPA [3]) | Molecule | inhibition of proteolytic cleavage of latent PDGF-CC [1] | inhibition of processing of endogenous full-length PDGF-CC (tPA [2])
1 |  | NCCc1ccc(S(=O)(=O)F)cc1 [AEBSF] | inhibited the proteolytic cleavage of latent PDGF-CC | 
2 |  | CC(=O)N[C@@H](CC(C)C)C(=O)N[C@@H](CC(C)C)C(=O)N[C@H](C=O)CCCNC(=N)N [leupeptin] | inhibited the proteolytic cleavage of latent PDGF-CC | 
3 |  | Cl.Cl.N=C(N)c1ccc(C=C2CCCCC(=Cc3ccc(C(=N)N)cc3)C2=O)cc1 [tPA-STOP™] |  | in a dose-dependent way, prevented processing of full-length PDGF-CC
4 | failed to do so | PDGF-DD: recombinant His6-tagged latent full-length PDGF-DD |  | 
5 |  | aprotinin | inhibited the proteolytic cleavage of latent PDGF-CC | efficiently inhibited processing of latent PDGF-CC

Source: US20060104978A1, “Methods and compositions for PDGF-C activation and inhibition” (LUDWIG INSTITUTE FOR CANCER RESEARCH, priority 2003, published 2006)
